Measurements taken from US20030097221A1, “Detection and characterization of psychoactives using parallel multi-site assays in brain tissue” (priority 2001, published 2003).
Several values for one entry are separate records, joined by “and”; a condition that tells them apart may be missing. Identical values can stand only once.

Tests used:
Assay type in all cases: cell-based, rat
[1] = tested on: glutamate receptor-mediated evoked excitatory synaptic transmission, hippocampal slice CA1; experiment: Paired-pulse evoked fEPSP in CA1, Schaffer collateral stimulation (assays SC50, SC200), MED64 multi-electrode array; parameters: key to SC 50 ms Amplitude fEPSP 1st, Mean / SC 50 ms Amplitude fEPSP 2nd, Mean / SC 200 ms Widths fEPSP 1st, Mean / SC 200 ms Widths fEPSP 2nd, Mean: fractional change vs. last 5 min of pre-wash-in control phase
Experimental: (§1) A 17-24 day old Sprague Dawley rat was decapitated after anesthesia with halothane (2-bromo-2-chloro-1,1,1-trifluoroethane; Sigma; B4388), and the whole brain was removed. The brain was immediately soaked for ˜2 min in ice-cold, oxygenated preparation buffer of the following composition (in mM): 124 NaCl, 26 NaHCO3, 10 glucose, 3 KCl, 1.25 NaH2PO4, 2 CaCl2, and 2 MgSO4. Appropriate portions of the brain were trimmed and placed on the ice-cold stage of a vibrating tissue slicer (Leica, Nussloch, Germany; VT-1000S). The stage was immediately filled with both oxygenated and frozen preparation buffers. The thickness of each tissue slice was 350 μm. Each slice was gently taken off the blade, and immediately soaked in the oxygenated artificial cerebrospinal fluid (ACSF) for at least 1 hr at room temperature. Then a slice was placed on the center of the MED probe. The slice was positioned to cover the 8×8 array. After positioning the slice, the MED probe was immediately placed in a box filled with 95% O2 and 5% CO2.
During recording, the slices were continuously perfused with a solution of the following composition: ACSF (in mM): 124 NaCl, 26 NaHCO3, 10 glucose, 3 KCl, 1.25 kH2PO4, 2 CaCl2, 1 MgSO4. All compounds were bath applied at known concentrations and were prepared daily from frozen aliquots. Compounds were purchased from Sigma. Ampakines (CX516, CX546, CX554) were made fresh everyday, and used at concentrations: CX516, 250 μM; CX546, 250 μM; and CX554, 30 μM.
Baseline, application, and recovery time was usually at 10, 20, and 30 min respectively.
During electrophysiological recording, the slices on the MED probe were placed in a small CO2 incubator (Asahi Lifescience; model 4020) at 32° C. The slices were placed on an interface, and a moisturized with a 95% O2 and 5% CO2 gas mixture.
Evoked field potentials at all 64 sites (minus stimulation sites) were recorded simultaneously with the multichannel recording system (Panasonic: MED64 system) at a 20 kHz sampling rate. In the case of the evoked response, one of the planar microelectrodes out of the 64 available was used for the stimulating cathode. Bipolar constant-current pulses (10-50 μA; 0.1 ms) were produced by the data acquisition software via the isolator. The stimulating microelectrode was selected by the 64-switch box.
All assays employ paired-pulse stimulation at various rat hippocampal sites to elicit evoked responses. The resulting field EPSP recordings were analyzed using Matlab software (The MathWorks, Inc.) by computing several response measures such as amplitude, halfwidth, and negative area, which apply to both the first and second evoked reponses. Amplitude was defined as the maximum depolarization magnitude relative to the average baseline reading prior to the first stimulation pulse. Halfwidth was defined as the duration of the depolarization phase of the evoked response at half its maximum amplitude value. Negative area was obtained by taking the magnitude of the integral of the evoked response curve over all segments with the same polarity as the depolarization phase. This integral spans a time window of 25 msec beginning one msec after the stimulation pulse.
Amplitudes and halfwidths for both first and second elicited responses were computed for assays SC50, SC200, and CA3-1—50. For DG50 only first and second amplitudes were computed. Negative areas for first and second responses were computed for SC50, SC200, CA3-1—50, and MF50.
All response paramters were utilized to quantify candidate sample composition effects on the hippocampus. For a given response parameter, the candidate sample composition effect was defined as the percent change of the average measure during the last five minutes of the wash-in phase with respect to the average measure of the last five minutes of the preceding, pre-wash-in control phase. […]

[2] = tested on: hippocampal slice regions (CA1, DG, MF); experiment: Comparison between regions of the slice, area under the curve for all 4 assays (FIG. 9); conditions: prediction drawn from the results of FIG. 9
Experimental: All assays employ paired-pulse stimulation at various rat hippocampal sites to elicit evoked responses. The resulting field EPSP recordings were analyzed using Matlab software (The MathWorks, Inc.) by computing several response measures such as amplitude, halfwidth, and negative area, which apply to both the first and second evoked reponses. Amplitude was defined as the maximum depolarization magnitude relative to the average baseline reading prior to the first stimulation pulse. Halfwidth was defined as the duration of the depolarization phase of the evoked response at half its maximum amplitude value. Negative area was obtained by taking the magnitude of the integral of the evoked response curve over all segments with the same polarity as the depolarization phase. This integral spans a time window of 25 msec beginning one msec after the stimulation pulse. […]
(§2) All response paramters were utilized to quantify candidate sample composition effects on the hippocampus. […]
To compare the response of tissue slices to candidate sample compositions between different regions of the slice, the area under the curve for all 4 assays was calculated.
To compare the effect of compounds in candidate sample compositions between different regions of a tissue slice, the area under the curve for all 4 assays was calculated. […]

[3] = tested on: glutamate receptor-mediated evoked excitatory synaptic transmission, hippocampal slice dentate gyrus; experiment: Paired-pulse evoked fEPSP in dentate gyrus (assay DG50), MED64; conditions: 250 μM; 50 ms inter-pulse delay
Experimental: as §1, with “CO2. […]” for “CO2.”
(§3) Evoked field potentials at all 64 sites (minus stimulation sites) were recorded simultaneously with the multichannel recording system (Panasonic: MED64 system) at a 20 kHz sampling rate. […]
(§4) All assays employ paired-pulse stimulation at various rat hippocampal sites to elicit evoked responses. The resulting field EPSP recordings were analyzed using Matlab software (The MathWorks, Inc.) by computing several response measures such as amplitude, halfwidth, and negative area, which apply to both the first and second evoked reponses. Amplitude was defined as the maximum depolarization magnitude relative to the average baseline reading prior to the first stimulation pulse. […]
The polarity of the evoked responses for assay DG50 was reversed before analysis because of the inverted voltage values recorded by the DG50 electrode. Assays SC50, SC200, MF50, and CA3-1—50, however, were analyzed without such a reversal. […]
as §2

[4] = tested on: glutamate receptor-mediated evoked excitatory synaptic transmission, hippocampal slice mossy fibers; experiment: Paired-pulse evoked fEPSP, mossy fibers (assay MF50), MED64; conditions: 250 μM; 50 ms inter-pulse delay
Experimental: A 17-24 day old Sprague Dawley rat was decapitated after anesthesia with halothane (2-bromo-2-chloro-1,1,1-trifluoroethane; Sigma; B4388), and the whole brain was removed. The brain was immediately soaked for ˜2 min in ice-cold, oxygenated preparation buffer of the following composition (in mM): 124 NaCl, 26 NaHCO3, 10 glucose, 3 KCl, 1.25 NaH2PO4, 2 CaCl2, and 2 MgSO4. Appropriate portions of the brain were trimmed and placed on the ice-cold stage of a vibrating tissue slicer (Leica, Nussloch, Germany; VT-1000S). The stage was immediately filled with both oxygenated and frozen preparation buffers. The thickness of each tissue slice was 350 μm. […]
as §3, §4

[5] = CX516 250 μM, individual slice files, normalized change over control
[6] = CX516 250 μM, n = 4, normalized change over control

O=C(c1ccc2nccnc2c1)N1CCCCC1 [CX516, 1-(Quinoxalin-6-ylcarbonyl)piperidine]
amplitude of both responses in CA1 ([1]; 250 μM, 50 ms or 200 ms delay between stimulation pulses): increase in the amplitude
effect on half-width of both responses ([1]; 250 μM, summary of Table 1): no effect
increase of the amplitude of first and second fEPSP ([1]; 250 μM, summary of Table 1): 15-17%
SC 50 ms Amplitude fEPSP 1st [1, 5]: 0.276 and 0.211 and 0.087 and 0.110
SC 50 ms Amplitude fEPSP 2nd [1, 5]: 0.246 and 0.192 and 0.044 and 0.085
SC 50 ms Widths fEPSP 1st [1, 5]: 0.020 and −0.023 and 0.063 and 0.007
SC 50 ms Widths fEPSP 2nd [1, 5]: −0.001 and 0.017 and 0.045 and 0.026
SC 200 ms Amplitude fEPSP 1st [1, 5]: 0.260 and 0.206 and 0.093 and 0.114
SC 200 ms Amplitude fEPSP 2nd [1, 5]: 0.258 and 0.194 and 0.067 and 0.085
SC 200 ms Widths fEPSP 1st [1, 5]: 0.036 and −0.024 and 0.051 and −0.002
SC 200 ms Widths fEPSP 2nd [1, 5]: 0.035 and 0.001 and 0.049 and 0.037
SC 50 ms Amplitude fEPSP 1st, Change over Control (%) ([1]; CX516 250 μM, n = 4): 17.108%
SC 50 ms Amplitude fEPSP 2nd, Change over Control (%) ([1]; CX516 250 μM, n = 4): 14.178%
SC 50 ms Widths fEPSP 1st, Change over Control (%) ([1]; CX516 250 μM, n = 4): 1.658%
SC 50 ms Widths fEPSP 2nd, Change over Control (%) ([1]; CX516 250 μM, n = 4): 2.168%
SC 200 ms Amplitude fEPSP 1st, Change over Control (%) ([1]; CX516 250 μM, n = 4): 16.825%
SC 200 ms Amplitude fEPSP 2nd, Change over Control (%) ([1]; CX516 250 μM, n = 4): 15.088%
SC 200 ms Widths fEPSP 1st, Change over Control (%) ([1]; CX516 250 μM, n = 4): 1.525%
SC 200 ms Widths fEPSP 2nd, Change over Control (%) ([1]; CX516 250 μM, n = 4): 3.055%
SC 50 ms Amplitude fEPSP 1st, Mean [1, 6]: 0.171
SC 50 ms Amplitude fEPSP 2nd, Mean [1, 6]: 0.142
SC 50 ms Widths fEPSP 1st, Mean [1, 6]: 0.017
SC 50 ms Widths fEPSP 2nd, Mean [1, 6]: 0.022
SC 200 ms Amplitude fEPSP 1st, Mean [1, 6]: 0.168
SC 200 ms Amplitude fEPSP 2nd, Mean [1, 6]: 0.151
SC 200 ms Widths fEPSP 1st, Mean [1, 6]: 0.015
SC 200 ms Widths fEPSP 2nd, Mean [1, 6]: 0.031
kind of modulation of the responses in CA1 (halfwidth vs amplitude) ([1]; CX516, CX546 250 μM, CX554 30 μM): amplitude only modulation
degree to which ampakines enhance activation of interneurons (rank order) [2]: CX554>CX546>CX516
responses recorded in dentate gyrus (amplitude) [3]: increase
mossy fibers' response (area) [4]: increase
